Assays:
[1] = reported in References 1 and 2; cited from earlier work
[2] = Average score of NAC and NAL depletion and phototoxicity or photoallergy determination, UV detection; settings: for Average score (%) under light irradiation / Average score (%) without light irradiation: average of NAC and NAL depletion
[3] = NAL depletion under and without ultraviolet irradiation, HPLC with fluorescence detection (284 nm excitation, 333 nm fluorescence); settings: single compound; for NAL Depletion (%): without light irradiation
[4] = Average score of NAC and NAL depletion and phototoxicity or photoallergy determination, fluorescence detection; settings: single compound; for Average score (%): without light irradiation
[5] = NAC depletion under and without ultraviolet irradiation, HPLC with fluorescence detection (284 nm excitation, 333 nm fluorescence); settings: single compound; for NAC Depletion (%): without light irradiation
[6] = reported in References 1 to 3; cited from earlier work
[7] = NAC depletion under and without ultraviolet irradiation, HPLC with UV detection (281 nm); settings: for NAC Depletion (%) without light irradiation: 25° C. 24 hours light-shielded; for NAC Depletion (%) without light irradiation / NAC Depletion (%) under light irradiation: test substance solution 1 mmol/L; for NAC Depletion (%) under light irradiation: 2,000 μW/cm^2 for 1 hour then 25° C. 23 hours
[8] = NAL depletion under and without ultraviolet irradiation, HPLC with UV detection (281 nm); settings: for NAL Depletion (%) without light irradiation: 25° C. 24 hours light-shielded; for NAL Depletion (%) without light irradiation / NAL Depletion (%) under light irradiation: test substance solution 1 mmol/L; for NAL Depletion (%) under light irradiation: 2,000 μW/cm^2 for 1 hour then 25° C. 23 hours

| Compound | In vivo photoallergy [1] | Difference in depletion (under light irradiation - without light irradiation) Average score (%) [2] [%] | Average score (%) under light irradiation [2] [%] | Average score (%) without light irradiation [2] [%] | Difference in depletion (under light irradiation - without light irradiation) NAL (%) [3] [%] | NAL Depletion (%) [3] [%] | Difference in depletion (under light irradiation - without light irradiation) Average score (%) [4] [%] | Average score (%) [4] [%] | Difference in depletion (under light irradiation - without light irradiation) NAC (%) [5] [%] | NAC Depletion (%) [5] [%] | In vivo phototoxicity [6] | Difference in depletion (under light irradiation - without light irradiation) NAC (%) [7] [%] | NAC Depletion (%) without light irradiation [7] [%] | NAC Depletion (%) under light irradiation [7] [%] | Difference in depletion (under light irradiation - without light irradiation) NAL (%) [8] [%] | NAL Depletion (%) without light irradiation [8] [%] | NAL Depletion (%) under light irradiation [8] [%] |
| --- | --- | --- | --- | --- | --- | --- | --- | --- | --- | --- | --- | --- | --- | --- | --- | --- | --- |
| Cc1ccc(C=C2C(=O)C3(C)CCC2C3(C)C)cc1 (racemic) [compound 39] | Negative | 1.8 | 2.1 | 0.3 | 0.0 | 0.0 | 2.0 | 0.1 | 3.9 | 0.2 | Negative | 3.6 | 0.7 | 4.3 | 0.0 | 0.0 | 0.0 |
| CC(C)OC(=O)C(C)(C)Oc1ccc(C(=O)c2ccc(Cl)cc2)cc1 [compound 38] | – | – | – | 0.0 | 37.0 | 0.0 | 67.8 | 0.0 | 98.7 | 0.0 | Positive | – | 0.0 | −1178.7 | 40.7 | 0.0 | 40.7 |
| [Na+].[O-][n+]1ccccc1[S-] [compound 26] | Positive | – | 61.0 | – | 13.3 | 0.0 | 52.4 | 4.2 | 91.6 | 8.4 | – | 89.3 | 10.7 | 100.0 | – | −34.1 | 21.9 |
| COc1c2ccoc2cc2oc(=O)ccc12 [compound 31] | Negative | 48.9 | 49.5 | 0.6 | 6.0 | 0.2 | 48.9 | 0.1 | 91.9 | 0.0 | Positive | 89.6 | 1.1 | 90.6 | 8.2 | 0.2 | 8.4 |
